Reference: PMC10452181, “Synthesis and Biological Evaluation of Cyclobutane-Based β3 Integrin Antagonists: A Novel Approach to Targeting Integrins for Cancer Therapy” (Cancers, 2023)
Like-named read-outs stand apart in the source and are kept apart here. One block for each compound: values may come before it.

Experiments:
M14 cells = assay: cells; assay type: cell-based, human; conditions: 24 h
Method: M14 cells (4 × 10^5/mL in RPMI 1640 medium) were seeded in six-well plates and incubated at 37 °C in a 5% CO2 humidified atmosphere for 48 h. The resulting confluent monolayer was scratched with a sterile P200 pipette tip to create a gap (approximately 2 cm in length and 650 μm in width) in the centre of the well. The medium was removed, and the cells washed with Hank’s balanced salt solution (HBSS) (1 mL) and replaced with a medium containing the test antagonist. After 24 h, the cells were washed twice with HBSS and fixed with ice-pre-cooled methanol for thirty minutes at −20 °C. Following hydration with two washes in PBS, the monolayers were counterstained with Harris’s haematoxylin solution for two minutes, then washed in tap water for one minute and left to dry at room temperature. The plates were observed using an inverted microscope, and digital images captured.
The anti-αvβ3 activity of selected compounds was confirmed in a wound-healing assay (Figure 3). A number of cell lines were initially investigated for their suitability in this assay. The Sk-Mel-2 cell line which adhered well to fibronectin in the adhesion assay migrated very slowly; therefore, M14 melanoma cells which combined high levels of αvβ3 with rapid migration and low levels of proliferation over the assay period (Supplementary Figure S4) were selected.

in vitro = assay type: cell-based, human; conditions: human
Method: (§1) Before use in cell-based assays of integrin function, the effect of compounds on cell proliferation was tested using the MTT assay to avoid adhesion results being confounded by cell death (Supplementary Table S1). The effect of compounds on cell adhesion was then initially tested at a single, nontoxic concentration to identify active antagonists for further characterisation; those displaying a promising activity in the adhesion assay were tested at a wider range of concentrations to determine the IC50 (Table 2). […] Nevertheless, it is a cost-effective initial screening method. page 4: Table S1. Cytotoxicity of compounds on the cell lines used in the functional assays (measured by MTT assay). Cells (2000 cells/well for Sk-Mel-2; 1 x 10^4 cells/mL for M14) were incubated for 96 hours at 37 ° C in a total volume of 200 μL/well (180 μL medium + 20 μ L test compound solution). After 96 hours, the medium was replaced by fresh medium containing 0.5 mg/ml (end conc.) MTT per well, incubated for 4 h then the plate processed and read as described in the main text. […] ICT9053 41 naphthyridine 1 NHSO2Mes H Ester 52.6 ± 0.6 72.7 ± 9.8 ICT9065 42 naphthyridine 1 H H Ester >100 - ICT9079 43 naphthyridine 0 NHSO2Mes H Ester ~100 - ICT9061 44 naphthyridineT 1 NHSO2Mes H Ester 46.8 ± 10.7 - […] Ester 65.4 ± 11.1 >100 […] Ester 9.6 ± 5.7 >100 […] Ester >100 - […] Ester 54.6 ± 11.0 - […] Ester >5 3.3 ± 0.8 […] ICT9028 51 pyrimidine 2 NHSO2Ph H Acid >100 - ICT9031 52 pyrimidineT 1 NHSO2Mes H Acid >100 - ICT9090 53 pyrimidineT 2 NHSO2Mes H Acid >50 - ICT9029 54 pyrimidineT 2 NHSO2Ph H Acid >100 - ICT9063 55 naphthyridine 1 NHSO2Mes H Acid 61.7 ± 2.8 - […] Acid 45.5 ± 7.9 >100 […] 42.5 ± 1.8 >50 RGDS >50 - T trans configuration of cyclobutane sidechains.

[1] = Cytotoxicity by MTT assay, 96 h, M14; assay type: cell-based, human; conditions: human
Method: as §1

αIIbβ3 = target: T1, αIIbβ3 (Homo sapiens, UniProt P05106+P08514); assay: αIIbβ3/fibrinogen purified protein binding ELISA; conditions: mean ± SD
T1 construct: purchased Sigma
T1 sequence (P08514 32-887 limits assumed): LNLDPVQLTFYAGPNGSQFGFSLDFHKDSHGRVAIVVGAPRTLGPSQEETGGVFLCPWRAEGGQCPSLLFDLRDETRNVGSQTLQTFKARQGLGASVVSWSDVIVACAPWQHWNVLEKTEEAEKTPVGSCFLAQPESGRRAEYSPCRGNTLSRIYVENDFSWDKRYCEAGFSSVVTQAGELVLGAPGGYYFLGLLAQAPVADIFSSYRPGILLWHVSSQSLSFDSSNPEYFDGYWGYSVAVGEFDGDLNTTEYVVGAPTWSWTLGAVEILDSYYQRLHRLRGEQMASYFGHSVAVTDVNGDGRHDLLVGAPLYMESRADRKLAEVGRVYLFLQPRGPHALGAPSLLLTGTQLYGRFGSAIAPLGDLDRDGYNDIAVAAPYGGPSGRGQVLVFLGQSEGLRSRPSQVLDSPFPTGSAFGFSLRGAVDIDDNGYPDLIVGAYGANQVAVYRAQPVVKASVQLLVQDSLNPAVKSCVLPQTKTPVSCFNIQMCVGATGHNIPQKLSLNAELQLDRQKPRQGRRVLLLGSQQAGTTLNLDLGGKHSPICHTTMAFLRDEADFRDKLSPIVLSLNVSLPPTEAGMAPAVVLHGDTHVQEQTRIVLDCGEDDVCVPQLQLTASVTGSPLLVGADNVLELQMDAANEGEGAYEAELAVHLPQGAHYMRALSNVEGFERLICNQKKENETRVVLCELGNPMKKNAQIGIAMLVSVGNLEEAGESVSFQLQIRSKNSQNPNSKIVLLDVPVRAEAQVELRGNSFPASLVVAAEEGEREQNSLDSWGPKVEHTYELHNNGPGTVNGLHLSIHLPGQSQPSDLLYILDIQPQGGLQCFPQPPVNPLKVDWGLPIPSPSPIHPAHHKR
T1 sequence (P08514 891-1039 partner limits assumed): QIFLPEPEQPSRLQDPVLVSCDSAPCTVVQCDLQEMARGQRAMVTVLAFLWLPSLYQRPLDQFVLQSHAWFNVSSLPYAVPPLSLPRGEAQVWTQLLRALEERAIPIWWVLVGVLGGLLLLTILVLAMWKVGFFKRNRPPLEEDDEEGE
T1 sequence (P05106 27-788): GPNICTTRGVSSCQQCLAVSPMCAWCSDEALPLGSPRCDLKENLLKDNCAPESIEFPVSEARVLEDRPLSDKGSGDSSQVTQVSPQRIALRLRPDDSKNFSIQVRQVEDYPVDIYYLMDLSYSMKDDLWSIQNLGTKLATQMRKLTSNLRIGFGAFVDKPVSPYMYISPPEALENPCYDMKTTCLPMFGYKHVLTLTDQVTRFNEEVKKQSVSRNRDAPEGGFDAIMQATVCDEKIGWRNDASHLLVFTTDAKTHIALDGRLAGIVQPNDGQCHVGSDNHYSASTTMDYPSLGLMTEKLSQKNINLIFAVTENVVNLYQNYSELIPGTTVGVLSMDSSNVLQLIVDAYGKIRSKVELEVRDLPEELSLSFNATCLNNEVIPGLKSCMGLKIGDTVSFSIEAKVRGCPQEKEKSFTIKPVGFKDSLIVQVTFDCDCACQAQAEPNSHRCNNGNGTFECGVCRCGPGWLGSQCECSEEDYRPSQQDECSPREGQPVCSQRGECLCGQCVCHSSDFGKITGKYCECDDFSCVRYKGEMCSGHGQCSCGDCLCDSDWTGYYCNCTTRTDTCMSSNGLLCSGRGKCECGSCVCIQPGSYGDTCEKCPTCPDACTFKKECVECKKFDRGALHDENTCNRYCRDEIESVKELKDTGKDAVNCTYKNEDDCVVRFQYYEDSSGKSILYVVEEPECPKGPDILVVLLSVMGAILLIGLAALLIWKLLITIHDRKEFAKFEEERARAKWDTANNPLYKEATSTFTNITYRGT
Method: ELISA assays were performed as previously described with minor modifications. Briefly, serial dilutions of compounds were prepared in dimethyl sulfoxide (DMSO). C8 Maxi Immuno modules (Fisher Scientific) were incubated overnight at 4 °C with 0.5 μg/well of fibrinogen (Sigma) in sterile phosphate buffered saline (PBS, 0.2 g/L KCl, 8.0 g/L NaCl, 0.2 KH2PO4, 1.15 g/L Na2HPO4, pH 7.4). All subsequent wash steps were performed using 25 mM Tris, pH 7.6, 150 mM NaCl, 1 mM MnCl2, 1 mg/mL BSA, and binding/inhibition was carried out in 25 mM Tris, pH 7.6, 150 mM NaCl, 1 mM MnCl2, 1 mM MgCl2, 1 mM CaCl2, 1 mg/mL BSA.
Wells were washed and blocked with a blocking solution (PBS, 0.1% Tween 20, 3% BSA) for 1 h at 37 °C. Compounds were added to the wells at indicated concentrations (final 0.5% DMSO) in the presence of 0.5 µg/well αIIbβ3 (Sigma) and incubated at room temp for 1 h. After 3 washes, primary anti-αIIb (1:200 dilution, Santa Cruz Biotech, Heidelberg, Germany) and antigoat–HRP (1:500 dilution, Dako, Agilent, Santa Clara, CA, USA) were added at room temp for 1 h. The wells were washed and incubated with 0.1 mg/mL tetra-methylbenzidine (Sigma) for 25 min and the reaction was stopped with 1N H2SO4 (100 μL/well). The absorbance was measured at 450 nm using a Multiscan Spectrum reader (Thermo Scientific, Thermofisher, UK) and SkanIT RE (v2.4.4.5) software. Results were plotted as percent binding vs. log concentration and IC50 values determined.

αvβ3 = target: T2, αvβ3 (Homo sapiens, UniProt P05106+P06756); assay: Sk-Mel-2 cell adhesion to immobilised fibronectin (cell-binding assay, MTT readout); assay type: cell-based; conditions: Sk-Mel-2 adhesion to Fn, mean ± SD
T2 construct: endogenous in cells; host or cells: SK-Mel-2 melanoma cells
T2 sequence (P06756 31-889 limits assumed): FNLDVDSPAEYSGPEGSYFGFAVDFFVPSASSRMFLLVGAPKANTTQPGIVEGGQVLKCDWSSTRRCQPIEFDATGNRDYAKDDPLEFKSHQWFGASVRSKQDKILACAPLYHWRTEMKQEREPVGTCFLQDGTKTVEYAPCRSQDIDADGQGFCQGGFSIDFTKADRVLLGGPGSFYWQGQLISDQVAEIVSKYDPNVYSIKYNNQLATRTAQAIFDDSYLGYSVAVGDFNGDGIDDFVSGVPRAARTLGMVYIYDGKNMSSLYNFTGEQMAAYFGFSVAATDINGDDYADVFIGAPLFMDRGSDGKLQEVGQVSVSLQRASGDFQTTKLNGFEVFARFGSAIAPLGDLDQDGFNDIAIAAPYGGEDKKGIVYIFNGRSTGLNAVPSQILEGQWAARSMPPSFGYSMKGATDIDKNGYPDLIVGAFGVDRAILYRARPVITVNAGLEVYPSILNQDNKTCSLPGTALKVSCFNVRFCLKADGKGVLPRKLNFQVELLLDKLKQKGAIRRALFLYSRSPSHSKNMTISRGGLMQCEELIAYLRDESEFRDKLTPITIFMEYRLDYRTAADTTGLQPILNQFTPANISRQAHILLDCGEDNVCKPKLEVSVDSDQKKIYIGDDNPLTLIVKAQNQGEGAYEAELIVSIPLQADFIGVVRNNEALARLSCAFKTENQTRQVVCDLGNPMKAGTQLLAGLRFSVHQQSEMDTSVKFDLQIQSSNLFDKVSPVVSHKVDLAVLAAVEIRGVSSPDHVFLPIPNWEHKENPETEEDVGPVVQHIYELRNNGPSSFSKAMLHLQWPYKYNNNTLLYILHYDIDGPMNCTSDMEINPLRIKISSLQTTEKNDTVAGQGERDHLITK
T2 sequence (P06756 891-1048 partner limits assumed): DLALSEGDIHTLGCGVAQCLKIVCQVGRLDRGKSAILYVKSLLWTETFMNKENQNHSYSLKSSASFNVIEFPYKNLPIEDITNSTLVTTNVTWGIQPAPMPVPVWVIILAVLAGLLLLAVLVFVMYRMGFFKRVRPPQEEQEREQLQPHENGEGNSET
T2 sequence (P05106 27-788): as the sequence (P05106 27-788) above
Method: First, 96-well plates (Corning, VWR) were coated overnight at 4 °C with 0.5 μg/well fibronectin (Sigma). SK-Mel-2 cells were trypsinised, washed and resuspended in RPMI medium only at 10^5 cells/mL. Cells (100 µL/well) were treated with compound (DMSO final concentration 0.1%) at the indicated concentration for 4 hrs on a rotary shaker. Plates were washed (3 × PBS) and blocked with PBS/5% BSA for 2 hrs at 37 °C prior to adding the cells. Cells were incubated on the plates at 37 °C in a humidified chamber with 5% CO2 for 1 hr. The plates were washed 3× with PBS and a 200 µL/well RPMI medium containing 10% FCS added. The plates were incubated overnight at 37 °C as above. Finally, 0.5 mg/mL of 3-(4,5-dimethythiazol-2-yl)-2,5-diphenyl tetrazolium bromide (MTT) was added to each well and the plates incubated for a further 4 h. The medium was removed, and the insoluble formazan dissolved in 150 µL of DMSO. Absorbance was measured at 540 nm using a Thermo Multiskan EX (Thermofisher, UK)and Ascent Software (v2.6). Total binding was determined based on controls lacking any compounds (100% binding) in fibronectin-coated wells and uncoated wells blocked with BSA (0% binding) and corrected for background (no cells, fibronectin-coated).
As an initial test of anti-β3 activity, the ability of compounds to inhibit the adhesion of melanoma cells expressing high levels of αvβ3 and low levels of other RGD-binding integrins such as αvβ5 and α5β1 to immobilised fibronectin was evaluated.
Cells were seeded onto precoated plates in the presence or absence of putative antagonists and the number of adherent cells quantified colorimetrically.

Sk-Mel-2 = assay: in vitro; assay type: cell-based, human
Method: as §1

platelet aggregation = assay: ADP-induced platelet aggregation in hirudin-treated whole blood (ex vivo); assay type: cell-based, human; conditions: ADP 6.4 μM, 100 μM
Method: 2.7. Platelet Aggregation Assay
Platelet aggregation was measured in hirudin-anticoagulated whole blood from a healthy donor with ADP as agonist (end concentration 6.4 μM) using a Multiplate® impedance aggregometer (Dynabyte Informationssysteme GmbH, Munich, Germany). At 37 °C, cells were charged with 300 μL of saline, 300 μL of blood, 1 μL of compound (0.1% DMSO) and incubated for 3 min. The agonist was added and the increase in electrical impedance measured from 2 electrode pairs/cell for 6 min, transformed into arbitrary units (AU), and the area under the curve was calculated.

M14 = assay: Cytotoxicity by MTT assay, 96 h, M14; assay type: cell-based, human; conditions: MTT, 96 hours
Method: as §1

IC50 (M14 cells): 4 ± 0.07 µM | IC50 at 96 h (in vitro): 42.5 ± 1.8 µM
Structure (SMILES): CC(C)[C@@H]1NC(=O)[C@@H](Cc2ccccc2)NC(=O)[C@H](CC(=O)O)NC(=O)CNC(=O)[C@H](CCCNC(=N)N)NC1=O [cRGDfV, reference compound]
IC50 at 96 h [1]: > 50 µM

% Inhibition (αIIbβ3/Fg) @ 50 μM (αIIbβ3; 50 μM): 0 ± 9.8% | IC50 (αIIbβ3; read-out: IC50 (αIIbβ3/Fg)): > 50 µM | IC50 (M14 cells; M14 scratch wound, mean ± SD, read-out: Migration IC50): < 0.1 µM | Adhesion % Inhibition @ 5 μM (αvβ3; 5 μM): 98.4 ± 1.9% | IC50 (αvβ3): 0.34 ± 0.33 µM | IC50 (Sk-Mel-2): 9.6 ± 5.7 µM
Structure (SMILES): COC(=O)[C@H](CNC(=O)[C@H]1C[C@H](CCc2ccc3c(n2)NCCC3)C1)NS(=O)(=O)c1c(C)cc(C)cc1C [ICT9055 46, (S)-methyl 3-((1r,3r)-3-(2-(5,6,7,8-tetrahydro-1,8-naphthyridin-2-yl)ethyl)cyclobutanecarboxamido)-2-(2,4,6-trimethylphenylsulfonamido)propanoate]
% Inhibition (Platelet Aggregation) @ 100 μM (platelet aggregation): 5.6% | IC50 (M14): > 100 µM

IC50 (M14 cells; Homo sapiens, M14 scratch wound, mean ± SD, read-out: Migration IC50): 4.8 ± 0.2 µM | IC50 at 96 h (in vitro): > 100 µM | melting point: 94 to 95 °C
Structure (SMILES): COC(=O)CCNC(=O)C1CC(CCCNc2ncccn2)C1 (stereo not drawn) [ICT9003 22, 3-({3-[3-(Pyrimidin-2-ylamino)-propyl]-cyclobutanecarbonyl}-amino)-propionic acid methyl ester]
IC50 at 96 h ([1]; M14 cells, MTT, 96 hours, read-out: M14 IC50 (cytotoxicity)): > 100 µM

inhibition at 5 µM (αvβ3; 5 μM): 68.5 ± 29.1% | inhibition at 50 µM (αvβ3; 50 μM): 45.8 ± 16.6% | IC50 at 96 h (in vitro): > 50 µM
Structure (SMILES): NC(N)=NCCC[C@H](N)C(=O)NCC(=O)N[C@@H](CC(=O)O)C(=O)N[C@@H](CO)C(=O)O [RGDS, reference compound]
